Data from patent publication US20250002450A1, “CATIONIC STEROID COMPOUNDS, METHOD OF OBTAINING THEREOF, FORMULATIONS COMPRISING THEREOF AND THEIR USES” (UNIVERSIDADE DO PORTO, priority 2021, published 2025).

Columns and labels:
E. coli ATCC 25922 [1] = assay: Membrane integrity, propidium iodide influx assay (SYTO 9/PI); type: cell-based, Escherichia coli
Experimental: The influx of PI in E. coli ATCC 25922 treated with 2×MIC, MIC, and ½×MIC of compound 1 was evaluated using a commercial kit that includes fluorescent nucleic acid stains SYTO® 9 and PI. SYTO® 9 can enter cells with intact or damaged membranes, generally labeling both, whereas PI only penetrates cells with severe membrane lesions, causing a reduction in SYTO® 9 fluorescence when both dyes are present.
In these assays, COL and AMP were used as controls. COL is a polycationic antimicrobial peptide with a complex mode of action, that ultimately solubilizes the bacterial cell membrane. AMP is an aminopenicillin that inhibits cell wall synthesis by inhibiting penicillin-binding proteins. E. coli ATCC 25922 cells were treated with compound 1 and, at several time-points (0, 1, and 18 h), samples were taken, and SYTO® 9/PI ratio was determined ([FIG. 4]). The entrance of PI is reflected in a reduction of this ratio.
Briefly, E. coli ATCC 25922 colonies from overnight cultures in MHA were suspended in CAMHB to prepare an inoculum with a final concentration of approximately 5×10^5 CFU/mL. The tubes were incubated overnight at 36° C. in a water bath with shaking. Following this, the cell suspensions were centrifuged at 3500 rpm for 15 min, the supernatant was removed, the cells were carefully resuspended in fresh CAMHB and the suspension was adjusted to 0.5 McFarland. An aliquot of this suspension was then added to each tube of CAMHB alone (control) or CAMHB plus an appropriate amount of test compound. […] The tubes were incubated at 36 degrees C. in a water bath with shaking and, at pre-established time points (0, 1, and 18 h), […] aliquots were retrieved for further analysis. After the exposure time, cells were washed two times, resuspended in 0.85% NaCl, and 100 μL of each cell suspension was distributed in the wells of a microtiter plate, in triplicate. 100 μL of a mixture of 30 μM PI and 5 μM SYTO® 9 prepared in ultrapure water were added to each well, and the plates were incubated at room temperature, in the dark, for 15 min. The fluorescence intensity of the stained bacterial suspensions was determined using a microplate reader (Synergy HT, BioTek Instruments, Winooski, VT, USA) by two consecutive measurements with excitation wavelength 485 nm and emission wavelength 528 nm (SYTO® 9) or 590 nm (PI). Data were analyzed by subtracting background fluorescence from each sample, dividing the fluorescence intensity of SYTO® 9 by fluorescence intensity of PI, and the results are presented as a percentage of control. Three independent assays were performed in triplicate for each experimental condition.

C. albicans ATCC 10231 [2] = assay: Propidium iodide influx assay (SYTO 9/PI); type: cell-based, Candida albicans; details: 5 min
Experimental: Influx of PI in C. albicans ATCC 10231 treated with compound 1 was evaluated using a commercial kit, which includes fluorescent nucleic acid stains SYTO™ 9 and PI, and measurements were conducted in a fluorescence microplate reader. […] The ability of PI to penetrate cells with damaged membranes makes it suitable for studying the effect of drugs on cell membranes.
In order to assess membrane integrity by the PI influx assay, a commercial kit was used (LIVE/DEAD® BacLight™ Bacterial Viability Kit, for microscopy & quantitative assays, Invitrogen by Thermo Fisher Scientific, Waltham, MA, USA), which includes fluorescent nucleic acid stains SYTO® 9 and PI. Briefly, C. albicans ATCC 10231 colonies from overnight cultures in SDA were suspended in sterile saline and adjusted to 0.5 McFarland. This suspension was then diluted in RPMI (1:50 followed by 1:20) to achieve a final concentration of 0.5-2.5×10^3 CFU/mL and the tubes were incubated overnight at 36° C. in a water bath with shaking. The following day, the cell suspensions were centrifuged at 3500 rpm for 15 min, the supernatant was removed, and the cells were carefully resuspended in 2 mL of 0.85% NaCl (VWR International, Radnor, PA, USA) prepared in ultrapure water. An aliquot of this suspension was then added to each tube of 0.85% NaCl alone (control) or 0.85% NaCl plus an appropriate amount of test compound, in a 1:10 proportion. […] Fluorescence intensity of the stained yeast suspensions was obtained in a microplate reader (Synergy HT, BioTek Instruments) by two consecutive measurements: with excitation wavelength 485 nm and emission wavelength 528 nm (SYTO® 9) and with excitation wavelength 485 nm and emission wavelength 590 nm (PI). Data were analyzed by subtracting background fluorescence from each sample, dividing fluorescence intensity of SYTO® 9 by fluorescence intensity of PI, and are presented as a percentage of control. […]

C. albicans ATCC 10231 [3] = assay: Biofilm formation (crystal violet); type: cell-based, Candida albicans; details: 2×MIC to ¼×MIC (128-16 μg/mL), 48 h
Experimental: The effect of compound 1 on biofilm formation of C. albicans ATCC 10231 was evaluated through quantification of total biomass by crystal violet staining. […] A control with appropriate concentration of DMSO, as well as a negative control (RPMI alone), were included. Sterile 96-well flat-bottomed untreated polystyrene microtiter plates were used. After a 48 h incubation at 35° C., the biofilms were stained with 1% (v/v) crystal violet for 5 min. The stain was solubilized with 33% (v/v) acetic acid and the biofilm biomass was quantified by measuring the absorbance of each sample at 570 nm in a microplate reader (Thermo Scientific Multiskan® EX, Thermo Fisher Scientific, Waltham, MA, USA). The background absorbance (RPMI without inoculum) was subtracted, and the data are presented as percentage of control. Three independent assays were performed in triplicate for each experimental condition.

C. albicans ATCC 10231 [4] = assay: Checkerboard synergy with antifungal drugs; type: cell-based, Candida albicans
Experimental: According to the consensus interpretation of FICI values, FICI≤0.5 is interpreted as ‘synergy’. […] Inoculum and compound solutions were prepared as described for antifungal susceptibility testing. Fractional inhibitory concentrations (FIC) were calculated as follows: FIC of compound=MIC of compound combined with antifungal/MIC compound alone, and FIC antifungal=MIC of antifungal combined with compound/MIC of antifungal alone. The FIC index (FICI) was calculated as the sum of each FIC and interpreted as follows: FICI≤0.5, ‘synergy’; 0.5<FICI≤4, ‘no interaction’; FICI>4, ‘antagonism’. At least three independent experiments were performed and mean FICI was calculated.

E. coli SA/2 = assay: Checkerboard synergy with CTX; type: cell-based
Experimental: The combined effect of compound 1 and CTX for E. coli SA/2, VAN for E. faecalis B3/101, COL for E. coli 2252, erythromycin for E. coli ATCC 25922, and OXA for S. aureus 66/1 was evaluated by the checkerboard method. […] The interaction between compound 1 and erythromycin was assessed for E. coli ATCC 25922. Gram-negative bacteria are intrinsically resistant to erythromycin, a macrolide that inhibits protein synthesis, and cannot penetrate the outer membrane of Gram-negative bacteria, which is impermeable to hydrophobic antibiotics. Ascertain ceragenins have been previously described to be able to enhance the efficacy of such antibiotics, this possibility was investigated for compound 1 and a FICI of 0.6 was obtained.

E. coli ATCC 25922 [5] = assay: Time-kill kinetics; type: cell-based, Escherichia coli
Experimental: The present disclosure relates to antibacterial mechanism of action of the compound 1 herein disclosed. In an embodiment, the evaluation of time-kill kinetics was performed as follows. Time-kill kinetics of compound 1 were evaluated for E. coli ATCC 25922, allowing the confirmation of its bactericidal effect. This is usually determined when ≥99.9% killing of the initial inoculum occurs and is determined by a 3-log10-unit decrease in CFU/mL.
The effect of compound 1 concentrations ranging between 64 and 8 μg/mL was evaluated. The bacterial inoculum was prepared by suspending colonies from overnight cultures (grown in MHA) in CAMHB, and an aliquot of this suspension was added to each tube of CAMHB alone (control) or CAMHB plus an appropriate amount of compound 1, to give an inoculum of approximately 5×10^5 CFU/mL, in a final volume of 10 mL. Tubes were incubated at 37 degrees C. in a water bath with shaking. At predetermined time points (30 min, 1, 1.5, 2, 3, 4, 6, 8, 12, and 24 h), 100 μL aliquots were aseptically removed from each tube, after vortexing, serially diluted in buffered peptone water (Biokar Diagnostics, Allone, Beauvais, France), if necessary, and spread on MHA. Colony counts were determined following overnight incubation at 37 degrees C. and log10 CFU/mL was plotted against time. Three independent experiments were performed.

Question: Which “reduction in SYTO 9/PI ratio vs untreated control” value (E. coli ATCC 25922 [1]; 32 μg/mL (MIC), after 1 and 18 h) does the source give for C[C@H](CCC(=O)NCCN)[C@H]1CC[C@H]2[C@@H]3CC[C@@H]4C[C@H](O)CC[C@]4(C)[C@H]3C[C@H](O)[C@]12C [Compound 1, (R)—N-(2-aminoethyl)-4-((3R,5R,8R,9S,10S,12S,13R,14S,17R)-3,12-dihydroxy-10,13-dimethylhexadecahydro-1H-cyclopenta[a]phenanthren-17-yl) pentanamida] here?
Answer: significant

Question: What about the “reduction in SYTO 9/PI ratio vs untreated control” value (E. coli ATCC 25922 [1]; 64 μg/mL (2×MIC, MBC), 0, 1, 18 h) of the same molecule?
Answer: significant at all time points

Question: And the “influx of PI” value (C. albicans ATCC 10231 [2]; 32 μg/mL (½×MIC))?
Answer: no evidence of influx of PI

Question: And the “reduction of SYTO 9/PI ratio vs untreated control” value (C. albicans ATCC 10231 [2]; 128 and 64 μg/mL (2×MIC and MIC))?
Answer: significant

Question: What about the “biofilm formation (in words)” value (C. albicans ATCC 10231 [3]) of the same molecule?
Answer: significant inhibition of biofilm formation

Question: What about the “effect on trailing caused by fluconazole at its MIC (in words)” value (C. albicans ATCC 10231 [4]; 16 μg/mL of compound 1 (¼×MIC), fluconazole 2 μg/mL) of the same molecule?
Answer: eliminated trailing

Question: And the “fractional inhibitory concentration index (FICI)” value (C. albicans ATCC 10231 [4]; with amphotericin B)?
Answer: ≤ 0.5

Question: What about the “fractional inhibitory concentration index (FICI)” value (C. albicans ATCC 10231 [4]; with fluconazole) of the same molecule?
Answer: ≤ 0.5

Question: And the “combined effect with CTX (in words)” value (E. coli SA/2)?
Answer: No synergistic interactions

Question: What about the “exposure time to bactericidal activity (≥99.9% killing)” value (E. coli ATCC 25922 [5]; 64 μg/mL (2×MIC)) of the same molecule?
Answer: approximately 1 h

Question: And the “decrease in CFU/mL” value (E. coli ATCC 25922 [5]; 64 μg/mL, after 30 min of exposure)?
Answer: 2 log10-unit

Question: And the “type of killing (in words)” value (E. coli ATCC 25922 [5]; 64-8 μg/mL)?
Answer: concentration-dependent killing
